{"source": "ChEMBL document CHEMBL5036336", "about": "“Structure-Guided Optimization Provides a Series of TTK Protein Inhibitors with Potent Antitumor Activity” (J Med Chem, 2021)", "key": {"[1]": {"assay": "Toxicity in CB17-SCID mouse xenografted with human TNBC PDX-CAL-51 cells assessed as body weight loss at 80 mg/kg, iv administered once per week for 3 weeks", "assay_type": "organism-based", "conditions": "in vivo, 504 h"}, "[2]": {"target": "Cytochrome P450 3A4 (Homo sapiens, UniProt P08684)", "sequence (P08684 whole entry)": "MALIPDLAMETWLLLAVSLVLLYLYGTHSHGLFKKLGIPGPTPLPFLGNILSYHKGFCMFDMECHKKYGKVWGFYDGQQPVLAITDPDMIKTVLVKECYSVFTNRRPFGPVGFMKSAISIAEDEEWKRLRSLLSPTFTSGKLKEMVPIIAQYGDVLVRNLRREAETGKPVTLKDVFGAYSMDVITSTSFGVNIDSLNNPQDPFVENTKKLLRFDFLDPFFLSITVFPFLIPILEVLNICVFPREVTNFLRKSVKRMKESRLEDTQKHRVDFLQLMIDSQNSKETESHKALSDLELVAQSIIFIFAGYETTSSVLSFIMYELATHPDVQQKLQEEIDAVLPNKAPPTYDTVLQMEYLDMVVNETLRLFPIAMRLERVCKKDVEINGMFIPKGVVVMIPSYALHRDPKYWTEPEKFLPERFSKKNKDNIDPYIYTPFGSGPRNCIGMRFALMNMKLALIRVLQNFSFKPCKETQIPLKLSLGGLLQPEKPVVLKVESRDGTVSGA", "assay": "Inhibition of CYP3A4 in human liver microsomes using […] as substrate incubated for 5 mins in presence of NADPH by LC-MS/MS analysis", "assay_type": "ADME"}, "[3]": {"assay": "Volume of distribution at steady state in mouse at 2 mg/kg, iv", "assay_type": "ADME, organism-based", "conditions": "in vivo, read-out: Vdss"}, "[4]": {"target": "Cytochrome P450 2C8 (Homo sapiens, UniProt P10632)", "assay": "Time dependent inhibition of CYP2C8 in human liver microsomes", "assay_type": "ADME"}, "[5]": {"target": "Leucine-rich repeat serine/threonine-protein kinase 2 (Homo sapiens, UniProt Q5S007)", "sequence (Q5S007 whole entry)": "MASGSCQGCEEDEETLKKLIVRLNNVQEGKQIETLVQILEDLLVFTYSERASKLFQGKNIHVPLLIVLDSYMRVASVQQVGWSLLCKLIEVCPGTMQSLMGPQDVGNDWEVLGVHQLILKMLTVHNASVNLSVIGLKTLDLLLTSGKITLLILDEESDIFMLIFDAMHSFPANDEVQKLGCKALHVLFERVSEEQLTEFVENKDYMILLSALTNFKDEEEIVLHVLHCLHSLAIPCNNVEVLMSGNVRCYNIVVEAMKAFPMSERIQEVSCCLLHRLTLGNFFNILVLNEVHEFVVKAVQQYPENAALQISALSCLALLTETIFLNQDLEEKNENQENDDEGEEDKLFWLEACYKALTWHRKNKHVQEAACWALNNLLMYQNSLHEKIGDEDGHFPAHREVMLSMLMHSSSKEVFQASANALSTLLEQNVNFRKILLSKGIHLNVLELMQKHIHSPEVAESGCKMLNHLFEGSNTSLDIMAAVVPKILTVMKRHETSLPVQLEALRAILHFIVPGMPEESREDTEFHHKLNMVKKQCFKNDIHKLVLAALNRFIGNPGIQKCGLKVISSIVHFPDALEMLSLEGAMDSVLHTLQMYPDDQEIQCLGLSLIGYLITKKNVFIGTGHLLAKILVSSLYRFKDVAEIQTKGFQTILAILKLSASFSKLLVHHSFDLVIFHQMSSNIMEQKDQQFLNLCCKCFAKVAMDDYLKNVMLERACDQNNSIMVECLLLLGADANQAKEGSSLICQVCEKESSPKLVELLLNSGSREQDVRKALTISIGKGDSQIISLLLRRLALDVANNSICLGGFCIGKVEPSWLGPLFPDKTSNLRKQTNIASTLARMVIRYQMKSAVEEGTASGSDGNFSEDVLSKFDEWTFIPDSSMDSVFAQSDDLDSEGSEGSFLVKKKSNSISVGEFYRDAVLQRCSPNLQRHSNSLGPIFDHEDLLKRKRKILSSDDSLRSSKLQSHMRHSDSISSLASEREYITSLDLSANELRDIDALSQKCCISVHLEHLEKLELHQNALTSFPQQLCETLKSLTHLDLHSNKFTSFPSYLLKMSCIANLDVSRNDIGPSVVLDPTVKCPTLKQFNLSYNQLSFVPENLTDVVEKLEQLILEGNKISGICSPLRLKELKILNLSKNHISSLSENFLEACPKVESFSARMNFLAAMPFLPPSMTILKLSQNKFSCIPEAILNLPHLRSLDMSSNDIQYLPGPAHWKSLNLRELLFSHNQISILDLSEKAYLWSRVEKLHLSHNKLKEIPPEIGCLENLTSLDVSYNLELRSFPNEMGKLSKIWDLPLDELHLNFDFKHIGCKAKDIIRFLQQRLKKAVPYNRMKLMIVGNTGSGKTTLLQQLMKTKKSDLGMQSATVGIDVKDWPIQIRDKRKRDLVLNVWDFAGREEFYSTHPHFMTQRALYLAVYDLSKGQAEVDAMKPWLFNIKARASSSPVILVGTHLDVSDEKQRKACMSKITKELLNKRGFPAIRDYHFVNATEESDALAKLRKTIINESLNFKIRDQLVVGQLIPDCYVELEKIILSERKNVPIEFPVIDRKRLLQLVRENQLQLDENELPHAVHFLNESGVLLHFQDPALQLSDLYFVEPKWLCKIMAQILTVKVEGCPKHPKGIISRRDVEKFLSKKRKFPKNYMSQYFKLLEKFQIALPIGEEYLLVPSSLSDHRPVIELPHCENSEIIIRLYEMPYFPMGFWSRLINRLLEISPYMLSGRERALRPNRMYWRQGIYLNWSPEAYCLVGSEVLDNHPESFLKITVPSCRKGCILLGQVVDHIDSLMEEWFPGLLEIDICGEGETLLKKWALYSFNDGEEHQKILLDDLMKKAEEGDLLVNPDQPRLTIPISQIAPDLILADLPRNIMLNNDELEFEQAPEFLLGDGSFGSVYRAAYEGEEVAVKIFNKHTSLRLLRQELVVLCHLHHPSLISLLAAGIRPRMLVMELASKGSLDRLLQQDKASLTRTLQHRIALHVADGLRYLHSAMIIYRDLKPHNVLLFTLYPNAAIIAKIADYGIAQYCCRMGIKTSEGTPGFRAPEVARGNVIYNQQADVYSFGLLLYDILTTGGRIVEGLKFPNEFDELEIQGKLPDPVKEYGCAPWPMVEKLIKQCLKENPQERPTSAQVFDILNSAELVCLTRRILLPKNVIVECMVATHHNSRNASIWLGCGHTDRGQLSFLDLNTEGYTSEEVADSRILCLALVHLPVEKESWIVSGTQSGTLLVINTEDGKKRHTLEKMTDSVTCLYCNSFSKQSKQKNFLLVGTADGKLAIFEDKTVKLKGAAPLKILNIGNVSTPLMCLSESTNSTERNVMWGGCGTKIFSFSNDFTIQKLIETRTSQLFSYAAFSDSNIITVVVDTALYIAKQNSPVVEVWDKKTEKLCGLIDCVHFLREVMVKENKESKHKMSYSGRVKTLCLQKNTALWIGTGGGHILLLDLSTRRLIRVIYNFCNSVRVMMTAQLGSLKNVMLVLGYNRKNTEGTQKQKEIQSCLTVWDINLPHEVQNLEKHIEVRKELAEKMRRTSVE", "assay": "Inhibition of LRRK2 (unknown origin) by ADAPTA assay"}, "[6]": {"assay": "Plasma protein binding in mouse", "assay_type": "ADME, cell-free", "conditions": "read-out: PPB"}, "[7]": {"assay": "Mean residence time in rat at 2 mg/kg, iv", "assay_type": "ADME, organism-based", "conditions": "in vivo"}, "[8]": {"system": "Leucine-rich repeat serine/threonine-protein kinase 2 (Homo sapiens), Q5S007 [G2019S]", "sequence (Q5S007 whole entry G2019S)": "as the sequence (Q5S007 whole entry) above, with G2019S counted along it", "assay": "Inhibition of LRRK2 G2019S mutant (unknown origin) at 3 uM by ADAPTA assay relative to control"}, "[9]": {"target": "Proto-oncogene tyrosine-protein kinase Src (Homo sapiens, UniProt P12931)", "assay": "Inhibition of SRC N1 (unknown origin) at 3 uM by Z-lyte assay relative to control"}, "[10]": {"target": "Testis-specific serine/threonine-protein kinase 1 (Homo sapiens) (UniProt Q9BXA7)", "assay": "Inhibition of TSSK1 (unknown origin) at 3 uM by Z-lyte assay relative to control"}, "[11]": {"assay": "Mean residence time in mouse at 2 mg/kg, iv", "assay_type": "ADME, organism-based", "conditions": "in vivo"}, "[12]": {"target": "Mitogen-activated protein kinase 8 (Homo sapiens, UniProt P45983)", "sequence (P45983 whole entry)": "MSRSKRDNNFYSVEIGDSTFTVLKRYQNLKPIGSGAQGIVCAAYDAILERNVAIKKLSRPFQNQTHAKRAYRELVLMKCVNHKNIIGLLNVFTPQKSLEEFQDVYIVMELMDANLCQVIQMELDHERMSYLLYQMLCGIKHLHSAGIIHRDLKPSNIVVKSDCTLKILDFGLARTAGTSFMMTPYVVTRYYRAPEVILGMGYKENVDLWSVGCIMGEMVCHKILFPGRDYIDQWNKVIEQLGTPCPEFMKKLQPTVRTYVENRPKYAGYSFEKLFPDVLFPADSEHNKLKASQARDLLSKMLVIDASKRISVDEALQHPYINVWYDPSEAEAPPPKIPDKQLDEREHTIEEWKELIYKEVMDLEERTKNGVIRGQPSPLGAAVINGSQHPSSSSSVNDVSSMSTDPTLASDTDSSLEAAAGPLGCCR", "assay": "Inhibition of JNK1 (unknown origin) at 3 uM by Z-lyte assay relative to control"}, "[13]": {"assay": "Toxicity in CB17-SCID mouse xenografted with human CAL-51 cells assessed as body weight loss at 30 to 50 mg/kg, iv administered once per week for 16 days", "assay_type": "organism-based", "conditions": "in vivo, 384 h, dose 30-50 mg/kg, time 16 day"}, "[14]": {"target": "Mitogen-activated protein kinase 9 (Homo sapiens, UniProt P45984)", "sequence (P45984 whole entry)": "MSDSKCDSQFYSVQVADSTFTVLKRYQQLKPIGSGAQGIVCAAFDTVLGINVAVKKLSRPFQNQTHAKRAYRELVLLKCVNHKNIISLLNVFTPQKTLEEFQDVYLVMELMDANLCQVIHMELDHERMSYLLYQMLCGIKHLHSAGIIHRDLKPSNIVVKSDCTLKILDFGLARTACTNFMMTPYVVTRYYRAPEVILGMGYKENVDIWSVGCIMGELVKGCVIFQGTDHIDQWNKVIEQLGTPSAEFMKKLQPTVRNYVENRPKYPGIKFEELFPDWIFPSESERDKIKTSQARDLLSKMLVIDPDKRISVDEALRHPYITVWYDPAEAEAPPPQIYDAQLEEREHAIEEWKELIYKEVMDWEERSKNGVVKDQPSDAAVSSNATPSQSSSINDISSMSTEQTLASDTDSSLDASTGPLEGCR", "assay": "Inhibition of JNK2 (unknown origin) by Z-lyte assay"}, "[15]": {"species": "Homo sapiens", "assay": "Selectivity index, ratio of IC50 for inhibition of CHK2 (unknown origin) to IC50 for inhibition of TTK (unknown origin)"}, "[16]": {"species": "Homo sapiens", "assay": "Selectivity ratio of IC50 for inhibition of JNK1 (unknown origin) to IC50 for inhibition of TTK (unknown origin)"}, "[17]": {"assay": "Kinetic solubility of compound in PBS at pH 7.4 at 200 uM incubated for 24 hrs by UPLC/MS analysis", "assay_type": "physicochemical", "conditions": "read-out: Kinetic_solubility"}, "[18]": {"system": "CAL-51", "assay": "Antiproliferative activity against human CAL-51 cells assessed as inhibition of cell proliferation measured after 3 days by Cell Titer-Glo luminescence based assay", "assay_type": "functional", "conditions": "CAL-51, 72 h"}, "[19]": {"target": "Substance-P receptor (Homo sapiens) (UniProt P25103)", "assay": "Inhibition of Neurokinin NK1 receptor (unknown origin) at 10 uM relative to control"}, "[20]": {"target": "Voltage-gated inwardly rectifying potassium channel KCNH2 (Homo sapiens, UniProt Q12809)", "sequence (Q12809 whole entry)": "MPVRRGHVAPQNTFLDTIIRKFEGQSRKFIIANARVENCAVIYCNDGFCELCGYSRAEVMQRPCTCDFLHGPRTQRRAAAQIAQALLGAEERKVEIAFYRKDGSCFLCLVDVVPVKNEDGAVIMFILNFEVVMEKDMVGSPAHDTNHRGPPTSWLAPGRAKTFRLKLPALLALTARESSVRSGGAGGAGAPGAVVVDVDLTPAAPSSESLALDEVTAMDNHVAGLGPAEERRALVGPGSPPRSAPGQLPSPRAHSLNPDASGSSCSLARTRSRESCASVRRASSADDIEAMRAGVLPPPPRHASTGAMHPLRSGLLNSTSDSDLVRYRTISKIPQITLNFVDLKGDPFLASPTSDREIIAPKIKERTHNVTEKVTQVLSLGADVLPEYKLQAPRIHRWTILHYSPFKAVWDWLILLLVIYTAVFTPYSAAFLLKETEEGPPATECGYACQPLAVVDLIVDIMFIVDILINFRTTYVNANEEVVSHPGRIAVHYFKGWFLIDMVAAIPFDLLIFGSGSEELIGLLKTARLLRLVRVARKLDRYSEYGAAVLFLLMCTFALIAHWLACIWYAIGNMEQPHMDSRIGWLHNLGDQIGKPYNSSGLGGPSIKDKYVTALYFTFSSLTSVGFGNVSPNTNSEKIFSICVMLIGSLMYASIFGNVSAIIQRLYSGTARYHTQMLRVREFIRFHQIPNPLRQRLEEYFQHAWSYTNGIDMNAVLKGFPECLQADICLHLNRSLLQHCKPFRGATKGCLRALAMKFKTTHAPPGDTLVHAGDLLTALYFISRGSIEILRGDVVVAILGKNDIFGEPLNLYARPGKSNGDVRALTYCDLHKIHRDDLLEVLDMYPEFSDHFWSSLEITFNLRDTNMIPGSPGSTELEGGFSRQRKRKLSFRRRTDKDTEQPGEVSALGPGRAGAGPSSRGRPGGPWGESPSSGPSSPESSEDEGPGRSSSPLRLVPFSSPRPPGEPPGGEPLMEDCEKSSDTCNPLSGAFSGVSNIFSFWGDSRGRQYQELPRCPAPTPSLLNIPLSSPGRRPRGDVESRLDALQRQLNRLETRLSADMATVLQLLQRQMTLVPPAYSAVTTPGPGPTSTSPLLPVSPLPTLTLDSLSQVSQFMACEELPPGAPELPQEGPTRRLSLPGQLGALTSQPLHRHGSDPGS", "assay": "Inhibition of hERG"}}, "data": [{"smiles": "CCc1cccc(CC)c1N1CCn2cc(-c3nc(Nc4ccc(N5CCC(C(=O)N6CC7(CN(C)C7)C6)CC5)cc4OC)nc4[nH]ccc34)cc2C1=O", "values": [{"measurement": "Activity", "setting": "[1]", "result": "Non-Toxic"}, {"measurement": "IC50", "setting": "[2]", "result": "> 5000", "unit": "nM"}, {"measurement": "Vd", "setting": "[3]", "result": 0.53, "unit": "L/kg"}, {"measurement": "IC50", "setting": "[4]", "result": "> 30000", "unit": "nM"}, {"measurement": "IC50", "setting": "[5]", "result": 342, "unit": "nM"}, {"measurement": "fraction unbound", "setting": "[6]", "result": "< 0.01"}, {"measurement": "MRT", "setting": "[7]", "result": 4.3, "unit": "h"}, {"measurement": "inhibition", "setting": "[8]", "result": "> 80", "unit": "%"}, {"measurement": "inhibition", "setting": "[9]", "result": "> 80", "unit": "%"}, {"measurement": "inhibition", "setting": "[10]", "result": "> 80", "unit": "%"}, {"measurement": "MRT", "setting": "[11]", "result": 0.98, "unit": "h"}, {"measurement": "inhibition", "setting": "[12]", "result": "> 80", "unit": "%"}, {"measurement": "Activity", "setting": "[13]", "result": "Non-Toxic"}, {"measurement": "IC50", "setting": "[14]", "result": 602, "unit": "nM"}, {"measurement": "Ratio IC50", "setting": "[15]", "result": 182}, {"measurement": "Ratio IC50", "setting": "[16]", "result": 64}, {"measurement": "solubility kinetic at 24 h, 200 µM", "setting": "[17]", "result": 180, "unit": "µM"}, {"measurement": "IC50", "setting": "[18]", "result": 16, "unit": "nM"}, {"measurement": "inhibition", "setting": "[19]", "result": 80, "unit": "%"}, {"measurement": "IC50", "setting": "[20]", "result": "> 30000", "unit": "nM"}]}]}
